Experimental data published in article PMC6600523, “Interference with Amyloid-β Nucleation by Transient Ligand Interaction” (Molecules, 2019).
Like-named read-outs stand apart in the source and are kept apart here. Where a SMILES comes first, the peptide text is derived from it. [ ]: non-standard residue; d: D form.

Experiments:
FITC-Aβ42 = target: T1, FITC-Aβ42 (Homo sapiens, UniProt P05067); test: Microscale thermophoresis, D3 titrated to FITC-Aβ42; format: binding
T1 construct: purchased Bachem M-2585.1000
T1 sequence (P05067 672-713 limits assumed): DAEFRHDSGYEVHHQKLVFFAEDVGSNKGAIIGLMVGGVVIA
Description: In detail, FITC-Aβ42 was dissolved in 20 mM sodium phosphate, 50 mM NaCl (pH 7.4—slightly alkali), 0.01% (v/v) Tw20 to obtain 80 nM stock solutions. 300 μM D3 was prepared in the same buffer. FITC-Aβ42 was then titrated with D3 solutions in 1:1 serial dilution steps to prepare 16 samples, in which the concentration of FITC-Aβ42 was kept constant at 40 nM, and the starting concentration of D3 was 150 μM. Samples were loaded into standard capillaries, and the thermophoresis was detected using a Monolith NT.115 (NanoTemper Technologies GmbH, Munich, Germany). The experiment was performed with 40% LED power and 60% microscale thermophoresis (MST) power. […] The final concentration of FITC-D3 in each sample was set to 40 nM. The LED power and MST power were adjusted to 30% and 60%, respectively. The on and off time for the IR laser was set to 30 s and 5 s. Since the working concentration of labeled molecules was rather low in this measurement, any signal loss due to surface adsorption might bias the data acquisition. Therefore trace amounts of Tw20 and PEI were used as additives in solution to minimize the unspecific surface adsorption of FITC-Aβ42 and FITC-D3 in capillaries, respectively. All measurements were conducted at 22 °C, and samples were prepared in triplicate.
The data was evaluated with PALMIST software (version 1.2.3) to obtain the dissociation constants. Changes in the normalized fluorescence ( ∆Fn ) with concentrations of the titrant were quantified and fitted with the 1:1 binding model available in the software using a 68.3% confidence interval. The graphic outputs were created using GUSSI (version 1.2.1).

Aβ42 [1] = target: T2, Aβ42 (Homo sapiens, UniProt P05067); test: Atomic force microscopy, morphologies of Aβ42 samples; format: biochemical; conditions: 20 mM sodium phosphate, 50 mM NaCl pH 7.4, 20 °C, AFM in air, AC mode
T2 construct: purchased Bachem H-1368.1000
T2 sequence (P05067 672-713 limits assumed): as above
Description: At 48 h and 120 h, 10 μL samples were pipetted onto freshly cleaved mica, and were further incubated at room temperature for 30 min. Mica with deposited samples were rinsed with ultrapure water for three times and finally dried with nitrogen gas. Atomic force microscopy (AFM) imaging was carried out in air at room temperature, using silicon cantilevers (OMCL AC160 TS, Olympus, Tokyo, Japan) and a JPK NanoWizard 3 microscope (JPK Instruments AG, Berlin, Germany) in AC mode. The nominal tip diameter of the cantilever was 7 nm. AFM height images at 10 × 10 μm^2 and 1 × 1 μm^2 (both with a resolution of 1024 × 1024 pixel) for all samples were taken with a line rate of 1 Hz and respective scanning speeds of 22.55 μm/s and 2.48 μm/s. Data was processed with JPK NanoWizard SPM data processing software.

Aβ42 [2] = target: T2, Aβ42; test: Turbidity assay of Aβ42 samples with D3; format: physicochemical; conditions: 40 μM Aβ42 with 4, 20, 40 and 80 μM D3; 20 mM sodium phosphate, 50 mM NaCl pH 7.4; ambient temperature; directly and after 2 h; UV-Vis
Description: The turbidity assay was carried out by measuring the spectra of all samples from 450 nm to 210 nm in a 1 cm quartz cuvette using a V-650 UV-Vis spectrophotometer (Jasco, Tokyo, Japan). The measurements were performed directly after preparing all samples, and repeated after 2 h of incubation at ambient temperature.

SMILES: CC(C)C[C@@H](NC(=O)[C@@H](CCCNC(=N)N)NC(=O)[C@H](NC(=O)[C@@H](CCCNC(=N)N)NC(=O)[C@H]1CCCN1C(=O)[C@H](N)CCCNC(=N)N)[C@H](C)O)C(=O)N[C@H](Cc1c[nH]cn1)C(=O)N[C@@H](C(=O)N[C@H](Cc1c[nH]cn1)C(=O)N[C@H](CCCNC(=N)N)C(=O)N[C@H](CC(N)=O)C(=O)N[C@H](CCCNC(=N)N)C(N)=O)[C@H](C)O [D3] (H-[dR][dP][dR][dT][dR][dL][dH][dT][dH][dR][dN][dR]-NH2)
- Kd (FITC-Aβ42; KD for D3 and Aβ42 (summary of both MST setups), both possible setups): ~400 nM
- Kd (FITC-Aβ42; MST, 40 nM FITC-Aβ42, D3 from 150 μM in 1:1 serial dilution, 20 mM sodium phosphate, 50 mM NaCl pH 7.4, 0.01% Tw20, 22 °C, 1:1 binding model (PALMIST), brackets = 68.3% confidence interval, triplicate, read-out: KD of D3 binding to FITC-Aβ42): 270 nM
- Kd (FITC-Aβ42; MST, 40 nM FITC-Aβ42, 5 mM sodium phosphate, 50 mM NaCl pH 7.4, 0.01% Tw20, 22 °C, 1:1 binding model, brackets = 68.3% confidence interval, read-out: KD of FITC-Aβ42 and D3 in low ionic strength buffer): 88 nM
- Morphology of Aβ42 incubated with D3, 48 h (Aβ42 [1]; 40 μM Aβ42 with 4 μM D3 (0.1 equimolar), 48 h): no fibrils
- Morphology of Aβ42 incubated with D3, 120 h (Aβ42 [1]; 40 μM Aβ42 with 4 μM D3, 120 h): did not stop the fibril formation
- Turbidity (absorbance at 405 nm) of Aβ42 samples on addition of D3 (Aβ42 [2]): promotes the rapid formation of co-precipitates in a concentration-dependent manner
